Assay results from patent US9421188B2, “Combination product comprising phentermine and topiramate, and preparation method thereof” (Institute of Pharmacology and Toxicology Academy of …, priority 2012, dated 2016).

Legend:
[1] = cited from earlier work
[2] = tested on: human plasma protein; conditions: plasma concentration range of 0.5-250 μm/ml; decreases with increase of plasma concentration; cited from earlier work
[3] = Effects of different dissolution media on release rate of sustained-release pellet of topiramate; assay type: physicochemical; conditions: artificial gastric fluid with pH of 1.2; degradation reaction
Method: In order to verify whether acidic, basic solvent media would influence the release rate of the sustained-release pellets of the present invention, 0.1 mol/L HCl (pH1.2) was prepared as artificial gastric fluid, […] phosphate buffer (pH6.8) was prepared as artificial intestinal fluid, and these media and water (500 ml) were used as release media separately, and rotation speed was 100 rpm, 37° C. 5 ml of Samples (supplemented with equivalent volume of media at the meantime) were separately taken at 1, 2, 4, 8, 12, 16, 20, 24 h, filtrated, and the subsequent filtrates were used as test solutions. High performance liquid chromatography (Appendix V D, Part II, Chinese Pharmacopoeia, 2010 Edition) was used, octylsilane-bonded silica gel was used as packing agent, 50% methanol was mobile phase, differential refractive detector was used, and flow rate was 1.5 ml per minute. 200 μl of test solution was taken and injected in liquid chromatography, and the peak area of topiramate as main drug was recorded; moreover, topiramate was taken as reference material and measured by the same method, and accumulative release percentages of drug at different time points were calculated by external standard method. The release profile of sample of Batch 1 in Example 6 (2) in the above mentioned media were drawn, and the results were shown in FIG. 2.

[4] = cited from earlier work; remark: listed apart in the source

## CC1(C)O[C@@H]2[C@@H](CO[C@@]3(COS(N)(=O)=O)OC(C)(C)O[C@@H]23)O1 [Topiramate, 2,3,4,5-bis-O-(1-methylethylidene)-β-D-fructopyranose sulfamate]
[1]; human, in vivo
  Plasma half-life: 19 to 25 h
[1]; oral administration
  Clearance for oral administration: 22 to 36 mL/min
[2]
  Human plasma protein binding ratio: 15-41%
[3]
  Stability of topiramate in artificial gastric fluid: unstable
[4]; acetone, chloroform, dimethylsulfoxide and ethanol
  Solubility in organic solvents: freely soluble
[4]; pH of 9-10, sodium hydroxide or sodium phosphate solutions
  Solubility in alkaline solution: very freely soluble
